According to patent publication US11213506B2, “Combination therapy for the treatment or prevention of tumours” (QBIOTICS PTY LTD, priority 2017, dated 2022):

Experiments:
[1] = test system: MM649 cells; experiment: IncuCyte cytotoxicity assay (propidium iodide); type: cell-based, human; conditions: 500 μM; for propidium iodide staining (loss of plasma membrane integrity): after 120 minutes, majority of cells; for cell morphology (cytoplasmic swelling, blistering): differing extents and kinetics of onset
Procedure: (§1) A431 (human epidermoid carcinoma), MM649 (human melanoma), B16-OVA (B16-F10 mouse melanoma cell line stably transfected with chicken ovalbumin), MM415 (human melanoma) and FaDu (human hypopharyngeal carcinoma) cells were cultured in RPMI-1640, 10% FCS (complete medium) at 37° C., 5% CO2 in a humidified incubator. All cell lines used in this study were confirmed as mycoplasma negative using MycoAlert (Lonza). STR profiling was also performed to confirm the identity of the human cell lines used.
(§2) Four cancer cell lines (A431, MM649 (human melanoma), FaDu (HNSCC) and MM415 (human melanoma) were assessed for their response to epoxytigliane treatment. Cells were plated at a density of 10,000 cells per well (100 μl of complete media) into clear bottom black 96-well plates (Corning, #3603). Following 24 h incubation, the media within each well was aspirated and replaced with 50 μl of fresh media containing 1 μg/ml propidium iodide (PI). Stock solutions (20 mg/ml in ethanol) of four epoxytiglianes (Compounds 1, 2, 3 and 4) were diluted to 2× final assay concentration (1 mM) in identical media and inserted into a U-bottom 96 well plate in preparation for transfer. 50 μl of dilution was added to the required wells and the resultant plates inserted into an Essen Biosciences IncuCyte in preparation for imaging. Images were acquired at various time points (30 min, 1 h and at hourly intervals) for a total of 24 h.

[2] = test system: FaDu cells; experiment: IncuCyte cytotoxicity assay (propidium iodide); type: cell-based, human; conditions: 500 μM; for propidium iodide staining (loss of plasma membrane integrity): after 120 minutes, majority of cells; for cell morphology (cytoplasmic swelling, blistering): differing extents and kinetics of onset
Procedure: as §1, §2

[3] = test system: MM415 cells; experiment: IncuCyte cytotoxicity assay (propidium iodide); type: cell-based, human; conditions: 500 μM; for propidium iodide staining (loss of plasma membrane integrity): after 120 minutes, majority of cells; for cell morphology (cytoplasmic swelling, blistering): differing extents and kinetics of onset
Procedure: as §1, §2

[4] = test system: A431 cells; experiment: IncuCyte cytotoxicity assay (propidium iodide); type: cell-based, human; conditions: 500 μM; for propidium iodide staining (loss of plasma membrane integrity): after 120 minutes, majority of cells; for cell morphology (cytoplasmic swelling, blistering): differing extents and kinetics of onset
Procedure: as §1, §2

[5] = test system: B16-OVA cells; experiment: ATP release assay; type: cell-based, mouse; conditions: both concentrations (500 and 300 μM), within 60 minutes
Procedure: as §1, with “melanoma) and” for “melanoma),”, “ovalbumin)” for “ovalbumin), MM415 (human melanoma) and FaDu (human hypopharyngeal carcinoma) cells”, “incubator. BMDCs were cultured in R10 media (RPMI, 10% FCS, 2 mM glutamine, 50 μM beta-mercaptoethanol, Pen/Strep).” for “incubator.”
(§3) Cell lines were plated at a density of 10,000 cells per well into clear 96-well plates (Corning, #3595; 100 μl of complete media) and the resultant plates incubated overnight as previously detailed. The following day, media was aspirated from each well and 50 μl of fresh medium was inserted. Stock solutions of Compounds 1, 2, 3 and 4 were diluted to 2× final assay concentration (1 mM and 600 μM) and 50 μl of these dilutions added to the required wells. Ethanol only control solutions were also compiled and administered. At the indicated timepoints, 80 μl of media was removed, centrifuged at 1,200 rpm for 4 mins to pellet cell debris and 50 μl assayed for ATP using a bioluminescence based ATP assay kit (FLAA, Sigma-Aldrich). Relative luminescence units were recorded for each sample using a Hybrid Synergy H4 plate reader (BioTek).

[6] = test system: MM649 cells; experiment: ATP release assay; type: cell-based, human; conditions: both concentrations (500 and 300 μM), within 60 minutes
Procedure: as §1, with “melanoma) and” for “melanoma),”, “ovalbumin)” for “ovalbumin), MM415 (human melanoma) and FaDu (human hypopharyngeal carcinoma) cells”, “incubator. BMDCs were cultured in R10 media (RPMI, 10% FCS, 2 mM glutamine, 50 μM beta-mercaptoethanol, Pen/Strep).” for “incubator.”
as §3

[7] = test system: A431 cells; experiment: ATP release assay; type: cell-based, human; conditions: both concentrations (500 and 300 μM), within 60 minutes
Procedure: as §1, with “melanoma) and” for “melanoma),”, “ovalbumin)” for “ovalbumin), MM415 (human melanoma) and FaDu (human hypopharyngeal carcinoma) cells”, “incubator. BMDCs were cultured in R10 media (RPMI, 10% FCS, 2 mM glutamine, 50 μM beta-mercaptoethanol, Pen/Strep).” for “incubator.”
as §3

[8] = test system: CD11c+ BMDCs with B16-OVA cells; experiment: BMDC uptake of epoxytigliane treated B16-OVA cells; type: cell-based, C57Bl/6 mice; conditions: B16-OVA treated at 500 or 300 μM for 30 and 60 mins; 4 h co-culture
Procedure: The tibias and […] from four 7-8 week old C57Bl/6 mice were first surgically removed under sterile conditions. The marrow was flushed from the bone cavity with 10 ml of ice cold R10 media (using a 27G needle/syringe into a 50 ml polypropylene tube). Cells were pelleted at 1,500 rpm for 5 mins and washed ×2 with ice cold R10 media. After resuspension of the pellet into 10 ml of ice cold R10 medium, cells were counted using an improved haemocytometer and plated at a density of 2×10^6 cells per plate (petri dish) in 10 ml of R10 supplemented with 20 ng/ml murine GM-CSF. All plates were incubated at 37° C., 5% CO2 and at day 3 an additional 10 ml R10 with 20 ng/ml GM-CSF was added. Cells were again fed at day 6 and used for downstream assays on day 7.
Prior to co-incubation with BMDCs, B16-OVA cells were trypsinised, centrifuged at 1,200 rpm for 4 mins to pellet cells and washed ×2 with complete medium. Cells were then stained with 2 μM Cell Tracker Green in complete medium for 45 mins, after which they were pelleted and washed ×2 as above. Labelled B16-OVA cells were subsequently treated with Compounds 1, 2, 3 and 4 at two concentrations (500 or 300 μM) in media at a density of 1×10^6 cells/ml for 30 and 60 mins, after which cells were pelleted via centrifugation, supernatant removed via aspiration and the cell pellet washed ×1 with complete media. After the wash, the treated cells were resuspended in R10 media, inserted into the wells of a 6-well plate (Corning, #3471. Ultra low attachment surface) and BMDCs added. Co-cultures were incubated for 4 h after which cell suspensions were transferred to a microfuge tube and centrifuged at 1,500 rpm for 5 mins. Pellets were resuspended in 100 μl FACs buffer containing anti-CD11c-APC and incubated for 10 mins at 4° C. Cells were again pelleted, washed ×1 with FACs buffer and then fixed using PBS, 1% formaldehyde for 10 mins. After centrifugation and removal of the supernatant, cells were resuspended in 500 μl FACs buffer in preparation for flow cytometry.
Samples were first gated by FSC-H v FSC-A, then SSC-H v SS-A to identify single cells. The proportion of CD11c^+ cells (Ex: 640 nm, Em: 670/14) with CMFDAmid (Ex: 488 nm, Em: 530/30) were then determined for treated and untreated cells as a percentage of all CD11c^+ cells.

| Compound | propidium iodide staining (loss of plasma membrane integrity) [1] | cell morphology (cytoplasmic swelling, blistering) [1] | propidium iodide staining (loss of plasma membrane integrity) [2] | cell morphology (cytoplasmic swelling, blistering) [2] | propidium iodide staining (loss of plasma membrane integrity) [3] | cell morphology (cytoplasmic swelling, blistering) [3] | propidium iodide staining (loss of plasma membrane integrity) [4] | cell morphology (cytoplasmic swelling, blistering) [4] | ATP release [5] | ATP release [6] | ATP release [7] | uptake of dying cancer cell fragments by CD11c+ dendritic cells/macrophages (BMDCs) [8] |
| --- | --- | --- | --- | --- | --- | --- | --- | --- | --- | --- | --- | --- |
| CCCCCC(=O)OC1C(C)C2(O)C(C3OC3(CO)C(O)C3(O)C(=O)C(C)=CC32)C2C(C)(C)C12OC(=O)C(C)CC (stereo not drawn) [Compound 3, 12-hexanoyl-13-(2-methylbutanoyl)-6,7-epoxy-4,5,9,12,13,20-hexahydroxy-1-tiglien-3-one] | strong red staining | significant cytoplasmic swelling and ‘blistering’ | strong red staining | significant cytoplasmic swelling and ‘blistering’ | strong red staining | significant cytoplasmic swelling and ‘blistering’ | strong red staining | significant cytoplasmic swelling and ‘blistering’ | significant release of ATP | significant release of ATP | significant release of ATP | promotes uptake |
| CCCCCC(=O)OC1C(C)C2(O)C(C3OC3(CO)C(O)C3(O)C(=O)C(C)=CC32)C2C(C)(C)C12OC(=O)CCCCC (stereo not drawn) [Compound 4, 12,13-dihexanoyl-6,7-epoxy-4,5,9,12,13,20-hexahydroxy-1-tiglien-3-one] | strong red staining | significant cytoplasmic swelling and ‘blistering’ | strong red staining | significant cytoplasmic swelling and ‘blistering’ | strong red staining | significant cytoplasmic swelling and ‘blistering’ | strong red staining | significant cytoplasmic swelling and ‘blistering’ | significant release of ATP | significant release of ATP | significant release of ATP | promotes uptake |
| CCC(C)C(=O)OC1C(C)C2(O)C(C3OC3(CO)C(O)C3(O)C(=O)C(C)=CC32)C2C(C)(C)C12OC(=O)C(C)CC (stereo not drawn) [Compound 2, 12,13-di-(2-methylbutanoyl)-6,7-epoxy-4,5,9,12,13,20-hexahydroxy-1-tiglien-3-one] | strong red staining | significant cytoplasmic swelling and ‘blistering’ | strong red staining | significant cytoplasmic swelling and ‘blistering’ | strong red staining | significant cytoplasmic swelling and ‘blistering’ | strong red staining | significant cytoplasmic swelling and ‘blistering’ | significant release of ATP | significant release of ATP | significant release of ATP | promotes uptake |
